Results reported in ChEMBL document CHEMBL1133356, “Examination of novel non-phosphorus-containing phosphotyrosyl mimetics against protein-tyrosine phosphatase-1B and demonstration of differential affinities toward Grb2 SH2 domains” (Bioorg Med Chem Lett, 2000).
Peptide text beside a SMILES is read from it. * marks the point of attachment. Carboxymethyl = O=C(O)C*

These compounds were tested against T1, Growth factor receptor-bound protein 2 (Homo sapiens, UniProt P62993) (assay: Inhibition of Growth factor receptor bound protein 2 SH2 domain binding in ELISA).
T1 sequence (P62993 whole entry, the tested form may be a part): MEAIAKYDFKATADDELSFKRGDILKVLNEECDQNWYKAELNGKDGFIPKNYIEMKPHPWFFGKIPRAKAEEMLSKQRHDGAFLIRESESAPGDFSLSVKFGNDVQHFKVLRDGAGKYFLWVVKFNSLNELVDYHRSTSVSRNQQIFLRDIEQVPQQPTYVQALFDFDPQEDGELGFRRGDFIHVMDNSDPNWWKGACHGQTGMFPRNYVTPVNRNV

| Compound | IC50 |
| --- | --- |
| NC(=O)C[C@H](NC(=O)C1(NC(=O)[C@H](Cc2ccc(O)c(C(=O)O)c2)NC(=O)C(=O)O)CCCCC1)C(=O)NCCCc1cccc2ccccc12 | > 100 µM |
| NC(=O)C[C@H](NC(=O)C1(NC(=O)[C@H](Cc2ccc(C(=O)O)c(O)c2)NC(=O)C(=O)O)CCCCC1)C(=O)NCCCc1cccc2ccccc12 | 50 µM |

Each compound was assayed against T1, Growth factor receptor-bound protein 2 (assay: Inhibition of Growth factor receptor bound protein 2 SH2 domain binding in plasmon resonance assay).

| Compound | IC50 |
| --- | --- |
| NC(=O)C[C@H](NC(=O)C1(NC(=O)[C@H](Cc2ccc(C(F)(F)C(=O)O)cc2)NC(=O)C(=O)O)CCCCC1)C(=O)NCCCc1cccc2ccccc12 | 2 µM |
| NC(=O)C[C@H](NC(=O)C1(NC(=O)[C@H](Cc2ccc(OCC(=O)O)cc2)NC(=O)C(=O)O)CCCCC1)C(=O)NCCCc1cccc2ccccc12 | 15 µM |
| NC(=O)C[C@H](NC(=O)C1(NC(=O)[C@H](Cc2ccc(CC(=O)O)cc2)NC(=O)C(=O)O)CCCCC1)C(=O)NCCCc1cccc2ccccc12 | 0.6 µM |
| NC(=O)C[C@H](NC(=O)C1(NC(=O)[C@H](Cc2ccc(OCC(=O)O)c(OCC(=O)O)c2)NC(=O)C(=O)O)CCCCC1)C(=O)NCCCc1cccc2ccccc12 | > 100 µM |

These compounds were tested against T2, Tyrosine-protein phosphatase non-receptor type 1 (Homo sapiens, UniProt P18031) (assay: Tested for binding affinity towards Protein-tyrosine Phosphatase 1B).
T2 sequence (P18031 whole entry): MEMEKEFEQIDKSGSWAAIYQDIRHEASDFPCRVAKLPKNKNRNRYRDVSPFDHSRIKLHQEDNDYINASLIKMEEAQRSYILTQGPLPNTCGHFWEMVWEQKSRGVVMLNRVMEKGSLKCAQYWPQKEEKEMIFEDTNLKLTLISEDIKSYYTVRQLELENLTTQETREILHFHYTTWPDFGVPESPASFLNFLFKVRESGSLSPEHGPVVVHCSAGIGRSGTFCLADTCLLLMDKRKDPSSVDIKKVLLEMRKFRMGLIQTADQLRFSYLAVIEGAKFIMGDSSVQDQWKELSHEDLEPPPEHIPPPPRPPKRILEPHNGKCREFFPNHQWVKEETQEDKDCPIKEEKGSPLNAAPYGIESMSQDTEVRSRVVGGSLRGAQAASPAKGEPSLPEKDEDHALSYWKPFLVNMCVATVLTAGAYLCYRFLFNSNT
Parameters: species or system Rattus norvegicus

| Compound | IC50 |
| --- | --- |
| CC(=O)N[C@@H](CC(=O)O)C(=O)N[C@@H](C)C(=O)N[C@@H](CC(=O)O)C(=O)N[C@@H](CCC(=O)O)C(=O)N[C@@H](Cc1ccc(OCC(=O)O)cc1)C(=O)N[C@@H](CC(C)C)C(N)=O (Ac-DADEY(Carboxymethyl)L-NH2) | 1200 µM |
| CC(=O)N[C@@H](CC(=O)O)C(=O)N[C@@H](C)C(=O)N[C@@H](CC(=O)O)C(=O)N[C@@H](CCC(=O)O)C(=O)N[C@@H](Cc1ccc(C(C(=O)O)C(=O)O)cc1)C(=O)N[C@@H](CC(C)C)C(N)=O (HELM PEPTIDE1{[ac].D.A.D.E.[O=C(O)C(C(=O)O)c1ccc(C[C@H](N[*:1])C(=O)[*:2])cc1].L.[am]}$$$$V2.0) | 1500 µM |
| CC(=O)N[C@@H](CC(=O)O)C(=O)N[C@@H](C)C(=O)N[C@@H](CC(=O)O)C(=O)N[C@@H](CCC(=O)O)C(=O)N[C@@H](Cc1ccc(C(F)(C(=O)O)C(=O)O)cc1)C(=O)N[C@@H](CC(C)C)C(N)=O (HELM PEPTIDE1{[ac].D.A.D.E.[O=C(O)C(F)(C(=O)O)c1ccc(C[C@H](N[*:1])C(=O)[*:2])cc1].L.[am]}$$$$V2.0) | 430 µM |
| CC(=O)N[C@@H](CC(=O)O)C(=O)N[C@@H](C)C(=O)N[C@@H](CC(=O)O)C(=O)N[C@@H](CCC(=O)O)C(=O)N[C@@H](Cc1ccc(C(F)(F)C(=O)O)cc1)C(=O)N[C@@H](CC(C)C)C(N)=O (HELM PEPTIDE1{[ac].D.A.D.E.[O=C(O)C(F)(F)c1ccc(C[C@H](N[*:1])C(=O)[*:2])cc1].L.[am]}$$$$V2.0) | 650 µM |
| CC(=O)N[C@@H](CC(=O)O)C(=O)N[C@@H](C)C(=O)N[C@@H](CC(=O)O)C(=O)N[C@@H](CCC(=O)O)C(=O)N[C@@H](Cc1ccc(OCC(=O)O)c(C(=O)O)c1)C(=O)N[C@@H](CC(C)C)C(N)=O (HELM PEPTIDE1{[ac].D.A.D.E.[O=C(O)COc1ccc(C[C@H](N[*:1])C(=O)[*:2])cc1C(=O)O].L.[am]}$$$$V2.0) | 19 µM |
| CC(=O)N[C@@H](CC(=O)O)C(=O)N[C@@H](C)C(=O)N[C@@H](CC(=O)O)C(=O)N[C@@H](CCC(=O)O)C(=O)N[C@@H](Cc1ccc(OCC(=O)O)c(OCC(=O)O)c1)C(=O)N[C@@H](CC(C)C)C(N)=O (HELM PEPTIDE1{[ac].D.A.D.E.[O=C(O)COc1ccc(C[C@H](N[*:1])C(=O)[*:2])cc1OCC(=O)O].L.[am]}$$$$V2.0) | 800 µM |
| CC(=O)N[C@@H](CC(=O)O)C(=O)N[C@@H](C)C(=O)N[C@@H](CC(=O)O)C(=O)N[C@@H](CCC(=O)O)C(=O)N[C@@H](Cc1ccc(CC(=O)O)c(C(=O)O)c1)C(=O)N[C@@H](CC(C)C)C(N)=O (HELM PEPTIDE1{[ac].D.A.D.E.[O=C(O)Cc1ccc(C[C@H](N[*:1])C(=O)[*:2])cc1C(=O)O].L.[am]}$$$$V2.0) | 3700 µM |
| CC(=O)N[C@@H](CC(=O)O)C(=O)N[C@@H](C)C(=O)N[C@@H](CC(=O)O)C(=O)N[C@@H](CCC(=O)O)C(=O)N[C@@H](Cc1ccc(CC(=O)O)c(O)c1)C(=O)N[C@@H](CC(C)C)C(N)=O (HELM PEPTIDE1{[ac].D.A.D.E.[O=C(O)Cc1ccc(C[C@H](N[*:1])C(=O)[*:2])cc1O].L.[am]}$$$$V2.0) | 13000 µM |
| CC(=O)N[C@@H](CC(=O)O)C(=O)N[C@@H](C)C(=O)N[C@@H](CC(=O)O)C(=O)N[C@@H](CCC(=O)O)C(=O)N[C@@H](Cc1ccc(CC(=O)O)cc1)C(=O)N[C@@H](CC(C)C)C(N)=O (HELM PEPTIDE1{[ac].D.A.D.E.[O=C(O)Cc1ccc(C[C@H](N[*:1])C(=O)[*:2])cc1].L.[am]}$$$$V2.0) | 2500 µM |
| CC(=O)N[C@@H](CC(=O)O)C(=O)N[C@@H](C)C(=O)N[C@@H](CC(=O)O)C(=O)N[C@@H](CCC(=O)O)C(=O)N[C@@H](Cc1ccc(O)c(C(=O)O)c1)C(=O)N[C@@H](CC(C)C)C(N)=O (HELM PEPTIDE1{[ac].D.A.D.E.[O=C(O)c1cc(C[C@H](N[*:1])C(=O)[*:2])ccc1O].L.[am]}$$$$V2.0) | 4600 µM |
| CC(=O)N[C@@H](CC(=O)O)C(=O)N[C@@H](C)C(=O)N[C@@H](CC(=O)O)C(=O)N[C@@H](CCC(=O)O)C(=O)N[C@@H](Cc1ccc(C(=O)O)c(O)c1)C(=O)N[C@@H](CC(C)C)C(N)=O (HELM PEPTIDE1{[ac].D.A.D.E.[O=C(O)c1ccc(C[C@H](N[*:1])C(=O)[*:2])cc1O].L.[am]}$$$$V2.0) | 5300 µM |
| CC(=O)N[C@@H](CC(=O)O)C(=O)N[C@@H](C)C(=O)N[C@@H](CC(=O)O)C(=O)N[C@@H](CCC(=O)O)C(=O)N[C@@H](Cc1ccc(C(=O)O)cc1)C(=O)N[C@@H](CC(C)C)C(N)=O (HELM PEPTIDE1{[ac].D.A.D.E.[O=C(O)c1ccc(C[C@H](N[*:1])C(=O)[*:2])cc1].L.[am]}$$$$V2.0) | 4400 µM |
| CC(=O)N[C@@H](CC(=O)O)C(=O)N[C@@H](C)C(=O)N[C@@H](CC(=O)O)C(=O)N[C@@H](CCC(=O)O)C(=O)N[C@@H](Cc1ccc(OP(=O)(O)O)cc1)C(=O)N[C@@H](CC(C)C)C(N)=O (HELM PEPTIDE1{[ac].D.A.D.E.[O=C([C@H](Cc1ccc(OP(=O)(O)O)cc1)N[*:1])[*:2]].L.[am]}$$$$V2.0) | 3.2 µM |
